Key:
[1] = Therapeutic index, ratio of CC50 for african green monkey Vero cells to EC50 for HCV genotype 1b; format: cell-based; settings: Vero cells (CC50) versus HCV genotype 1b (EC50)
PBMC = assay: Cytotoxicity against PBMC (unknown origin); format: cell-based
Hepatitis C virus [2] = assay: Antiviral activity against HCV genotype 1b expressing NS5A Y93H mutant infected in human HuH7 cells assessed as reduction in viral RNA replication; format: functional, organism-based, Hepacivirus hominis; settings: Huh-7
[3] = Therapeutic index, ratio of CC50 for human HuH7 cells to EC50 for HCV genotype 1b; format: cell-based, Huh-7; settings: HuH7 cells (CC50) versus HCV genotype 1b (EC50)
Hepatitis C virus [4] = assay: Antiviral activity against wild type HCV genotype 1b infected in human HuH7 cells assessed as reduction in viral RNA replication; format: functional, organism-based, Hepacivirus hominis; settings: Huh-7
Vero = assay: Cytotoxicity against african green monkey Vero cells; format: cell-based; settings: chlorocebus sabaeus
Hepatitis C virus [5] = assay: Antiviral activity against HCV genotype 1b infected in human HuH7 cells assessed as reduction in viral RNA replication; format: functional, organism-based, Hepacivirus hominis; settings: Huh-7
Hepatitis C virus [6] = assay: Antiviral activity against HCV genotype 1a; format: functional, organism-based, Hepacivirus hominis; settings: subtype 1a
Hepatitis C virus [7] = assay: Antiviral activity against HCV genotype 2a; format: functional, organism-based, Hepacivirus hominis
[8] = Therapeutic index, ratio of CC50 for PBMC (unknown origin) to EC50 for HCV genotype 1b; settings: PBMC (CC50) versus HCV genotype 1b (EC50)
[9] = Cytotoxicity against human HuH7 cells; format: cell-based; settings: huh-7
CCRF-CEM = assay: Cytotoxicity against human CEM cells; format: cell-based
[10] = Therapeutic index, ratio of CC50 for human CEM cells to EC50 for HCV genotype 1b; format: cell-based, CCRF-CEM; settings: CEM cells (CC50) versus HCV genotype 1b (EC50)
Hepatitis C virus [11] = assay: Antiviral activity against HCV genotype 1b expressing NS5A L31V mutant infected in human HuH7 cells assessed as reduction in viral RNA replication; format: functional, organism-based, Hepacivirus hominis; settings: Huh-7
Hepatitis C virus [12] = assay: Resistance index, ratio of EC50 for HCV genotype 1b expressing NS5A L31V mutant infected in human HuH7 cells to EC50 for wild type HCV genotype 1b infected in human HuH7 cells; format: functional, Hepacivirus hominis, Huh-7

Row | SMILES | selectivity ratio [1] | CC50 (PBMC) [nM] | EC50 (Hepatitis C virus [2]) [nM] | selectivity ratio [3] | EC50 (Hepatitis C virus [4]) [nM] | CC50 (Vero) [nM] | EC50 (Hepatitis C virus [5]) [nM] | EC90 (Hepatitis C virus [5]) [nM] | EC50 (Hepatitis C virus [6]) [nM] | EC50 (Hepatitis C virus [7]) [nM] | selectivity ratio [8] | CC50 [9] [nM] | CC50 (CCRF-CEM) [nM] | selectivity ratio [10] | EC50 (Hepatitis C virus [11]) [nM] | Ratio EC50 (Hepatitis C virus [12])
1 | COC(=O)N[C@@H](CCSC)C(=O)N1CCC[C@H]1c1ncc(-c2ccc(-c3ccc(-c4cnc([C@@H]5CCCN5C(=O)[C@@H](NC(=O)OC)C(C)C)[nH]4)cc3)cc2)[nH]1 | > 1e+06 | 41000 | > 0.11 | > 1e+06 | 0.059 | 40000 | 0.03 | 0.1 | 0.059 | 0.027 | > 1e+06 | > 330000 | 11000 | > 1e+06 | 0.05 | 
2 | COC(=O)N[C@@H](CSC(C)(C)C)C(=O)N1CCC[C@H]1c1ncc(-c2ccc(-c3ccc(-c4cnc([C@@H]5CCCN5C(=O)[C@@H](NC(=O)OC)C(C)C)[nH]4)cc3)cc2)[nH]1 | > 1e+06 | 18000 | ≥ 0.33 | > 1e+06 | 0.14 | 39000 | 0.03 | 0.1 | 0.14 | 0.055 | > 1e+06 | > 330000 | 10000 | > 1e+06 | 0.072 | 
3 | COC(=O)N[C@@H](CS(=O)(=O)Cc1ccccc1)C(=O)N1CCC[C@H]1c1ncc(-c2ccc(-c3ccc(-c4cnc([C@@H]5CCCN5C(=O)[C@@H](NC(=O)OC)C(C)C)[nH]4)cc3)cc2)[nH]1 | > 1e+06 | 21000 |  | > 1e+06 |  | > 100000 | 0.02 | 0.1 |  |  | > 1e+06 |  | > 100000 | > 1e+06 |  | 
4 | COC(=O)N[C@@H](CSCc1ccccc1)C(=O)N1CCC[C@H]1c1ncc(-c2ccc(-c3ccc(-c4cnc([C@@H]5CCCN5C(=O)[C@@H](NC(=O)OC)C(C)C)[nH]4)cc3)cc2)[nH]1 | > 1e+06 | > 100000 | > 0.33 | > 1e+06 | 0.1 | > 100000 | 0.02 | 0.032 | 0.1 | 0.039 | > 1e+06 | > 330000 | 82000 | > 1e+06 | 0.39 | >3
5 | COC(=O)N[C@H](C(=O)N1CCC[C@H]1c1nc(-c2ccc(-c3ccc(-c4c[nH]c([C@@H]5CCCN5C(=O)[C@@H](NC(=O)OC)C(C)C)n4)cc3)cc2)c[nH]1)C(C)C |  |  | 0.18 |  | 0.048 |  | 0.004 | 0.02 | 0.048 | 0.024 |  | > 15000 |  |  | 0.035 | 
6 | COC(=O)N[C@@H](CSC)C(=O)N1CCC[C@H]1c1ncc(-c2ccc(-c3ccc(-c4cnc([C@@H]5CCCN5C(=O)[C@@H](NC(=O)OC)C(C)C)[nH]4)cc3)cc2)[nH]1 | > 1e+06 | 31000 |  | > 1e+06 |  | 18000 | 0.061 | 0.1 |  |  | > 1e+06 |  | 11000 | > 1e+06 |  | 
7 | COC(=O)N[C@@H](C[S+]([O-])Cc1ccccc1)C(=O)N1CCC[C@H]1c1ncc(-c2ccc(-c3ccc(-c4cnc([C@@H]5CCCN5C(=O)[C@@H](NC(=O)OC)C(C)C)[nH]4)cc3)cc2)[nH]1 (stereo partly specified) | > 1e+06 | 42000 |  | > 1e+06 |  | 11000 | 0.1 | 0.3 |  |  | > 1e+06 |  | 11000 | > 1e+06 |  | 

— ChEMBL document CHEMBL3608282 (Bioorg Med Chem Lett, 2015)
